Data on 21 compounds can be found in patent publication US20260042773A1, “NOVEL CAMPTOTHECIN ANALOGS AND IMMUNOCONJUGATES THEREOF” (priority 2022, published 2026).

pIC50: −log10 of the molar value.

One assay deals with SU-DHL-1 cells. Description: Cell viability (Cell Titer Glo 2.0) in SU-DHL-1 cells. Format: cell-based. The conditions noted are these: Homo sapiens, 120 hours at 37° C., Cell Titer Glo 2.0, normalized to non-treated controls. The procedure: (§1) SU-DHL-1 and SK-BR-3 cells (ATCC, Manassas, VA, USA) were seeded into 384-well white-walled culture plates and allowed to adhere for 2-4 hours. Cells were then treated at least in duplicate by addition of 5-fold serially diluted test articles prepared at 2× final concentration and incubated at 37° C. for 120 hours. Cell viability following treatment was determined by Cell Titer Glo 2.0 Assay (Promega, Madison, WI, USA) and normalized to non-treated controls. Dose-response relationships were analyzed using GraphPad Prism (La Jolla, C A, USA), and IC50 values were derived from non-linear regression analyses using a 4-parameter logistic equation.

For another assay, the system named is SK-BR-3 cells. Description: Cell viability (Cell Titer Glo 2.0) in SK-BR-3 cells. Type of assay: cell-based. To be noted: Homo sapiens, 120 hours at 37° C., Cell Titer Glo 2.0, normalized to non-treated controls. Here is the method:
as §1
Background: Cellular ATP, detected with luciferase, serves as a proxy for viable cell number.

The pIC50 is the IC50 on a negative log10 scale, so that one unit is a factor of ten. Regarding `CC[C@@]1(O)C(=O)OCc2c1cc1n(c2=O)Cc2c-1nc1ccc(N)cc1c2N(C)CCN(C)C` [Compound 17], the pIC50 in the assay on SU-DHL-1 cells and in the assay on SK-BR-3 cells was less than 7.70 throughout.

Consider `CC[C@@]1(O)C(=O)OCc2c1cc1n(c2=O)Cc2c-1nc1ccc(N)cc1c2NC` [Compound 19], for which the pIC50 was less than 7.70 in the assay on SU-DHL-1 cells and 7.70 to 8.30 in the assay on SK-BR-3 cells.

For the compound `CC[C@@]1(O)C(=O)OCc2c1cc1n(c2=O)Cc2c-1nc1ccc(N)cc1c2N` [Compound 21], the values for the pIC50 in the assay on SU-DHL-1 cells and in the assay with SK-BR-3 cells were less than 7.70 and 7.70 to 8.30, respectively.

As to `CC[C@@]1(O)C(=O)OCc2c1cc1n(c2=O)Cc2c-1nc1ccc(N)cc1c2N1CC2(CCOCC2)C1` [Compound 9], the pIC50 was more than 8.30 in the assay with SU-DHL-1 cells and 7.70 to 8.30 with SK-BR-3 cells.

On to `CC[C@@]1(O)C(=O)OCc2c1cc1n(c2=O)Cc2c-1nc1ccc(N)cc1c2N1CCN(S(C)(=O)=O)CC1` [Compound 15], for which the pIC50 was 7.70 to 8.30 with SU-DHL-1 cells and less than 7.70 in the assay with SK-BR-3 cells.

With `CC[C@@]1(O)C(=O)OCc2c1cc1n(c2=O)Cc2c-1nc1ccc(N)cc1c2CN1CCS(=O)(=O)CC1` [Compound 3], the pIC50 with SU-DHL-1 cells and in the assay on SK-BR-3 cells was less than 7.70 each time.

As to `CC[C@@]1(O)C(=O)OCc2c1cc1n(c2=O)Cc2c-1nc1ccc(N)cc1c2CO` [Compound 10], the pIC50 with SU-DHL-1 cells and in the assay with SK-BR-3 cells was 7.70 to 8.30 each time.

`CC[C@@]1(O)C(=O)OCc2c1cc1n(c2=O)Cc2c-1nc1ccc(N)cc1c2N1CCC1` [Compound 8]: the pIC50 in the assay with SU-DHL-1 cells and in the assay with SK-BR-3 cells was 7.70 to 8.30 in each case.

For `CC[C@@]1(O)C(=O)OCc2c1cc1n(c2=O)Cc2c-1nc1ccc(N)cc1c2N1CCCCC1` [Compound 12], the pIC50 in the assay on SU-DHL-1 cells and in the assay with SK-BR-3 cells was more than 8.30 in each case.

With `CC[C@@]1(O)C(=O)OCc2c1cc1n(c2=O)Cc2c-1nc1ccc(N)cc1c2N1CCSCC1` [Compound 23], the pIC50 in the assay on SU-DHL-1 cells and in the assay on SK-BR-3 cells was more than 8.30 throughout.

As to `CC[C@@]1(O)C(=O)OCc2c1cc1n(c2=O)Cc2c-1nc1ccc(N)cc1c2CN1CCOCC1` [Compound 1], the figures for the pIC50 with SU-DHL-1 cells and with SK-BR-3 cells were more than 8.30 and 7.70 to 8.30, respectively.

On to `CC[C@@]1(O)C(=O)OCc2c1cc1n(c2=O)Cc2c-1nc1ccc(N)cc1c2N(C)CCOC` [Compound 16], for which the pIC50 with SU-DHL-1 cells was more than 8.30; with SK-BR-3 cells, 7.70 to 8.30.

As to `CC[C@@]1(O)C(=O)OCc2c1cc1n(c2=O)Cc2c-1nc1ccc(N)cc1c2N(C)C` [Compound 14], the pIC50 in the assay on SU-DHL-1 cells and with SK-BR-3 cells was 7.70 to 8.30 in each case.

With `CC[C@@]1(O)C(=O)OCc2c1cc1n(c2=O)Cc2c-1nc1ccc(N)cc1c2CN1CCN(C)CC1` [Compound 2], the pIC50 is 7.70 to 8.30 in the assay with SU-DHL-1 cells and less than 7.70 with SK-BR-3 cells.

As for `CC[C@@]1(O)C(=O)OCc2c1cc1n(c2=O)Cc2c-1nc1ccc(N)cc1c2N1CCOCC1` [Compound 5], the pIC50 with SU-DHL-1 cells and in the assay on SK-BR-3 cells was more than 8.30 throughout.

Consider `CC[C@@]1(O)C(=O)OCc2c1cc1n(c2=O)Cc2c-1nc1ccc(N)cc1c2N(C)CCO` [Compound 20], for which the pIC50 in the assay with SU-DHL-1 cells and in the assay on SK-BR-3 cells was less than 7.70 throughout.

On to `CC[C@@]1(O)C(=O)OCc2c1cc1n(c2=O)Cc2c-1nc1ccc(N)cc1c2N1C[C@H]2CC[C@@H](C1)O2` [Compound 18], for which the pIC50 with SU-DHL-1 cells and in the assay with SK-BR-3 cells was more than 8.30 each time.

For the compound `CC[C@@]1(O)C(=O)OCc2c1cc1n(c2=O)Cc2c-1nc1ccc(N)cc1c2COC` [Compound 4], the pIC50 in the assay on SU-DHL-1 cells and in the assay on SK-BR-3 cells was more than 8.30 in each case.

Take `CC[C@@]1(O)C(=O)OCc2c1cc1n(c2=O)Cc2c-1nc1ccc(N)cc1c2N1CCCC1` [Compound 6]: the pIC50 in the assay on SU-DHL-1 cells and in the assay with SK-BR-3 cells was 7.70 to 8.30 throughout.

On to `CC[C@@]1(O)C(=O)OCc2c1cc1n(c2=O)Cc2c-1nc1ccc(N)cc1c2N1CC2(COC2)C1` [Compound 7], for which the pIC50 in the assay on SU-DHL-1 cells and in the assay on SK-BR-3 cells was 7.70 to 8.30 each time.

Turning to `CC[C@@]1(O)C(=O)OCc2c1cc1n(c2=O)Cc2c-1nc1ccc(N)cc1c2N1CC2(CCOC2)C1` [Compound 11], the pIC50 in the assay with SU-DHL-1 cells and with SK-BR-3 cells was more than 8.30 each time.
